Measurements as given in ChEMBL document CHEMBL1671734, “An ertapenem-resistant extended-spectrum-beta-lactamase-producing Klebsiella pneumoniae clone carries a novel OmpK36 porin variant” (2010).

Experiments:
Type in all cases: functional
[1] = tested on: Klebsiella pneumoniae; test: Antimicrobial activity against ESBL-positive Klebsiella pneumoniae 18918 harboring porin OmpK36V mutant gene by Etest in presence of Tazobactam
[2] = tested on: Klebsiella pneumoniae; test: Antimicrobial activity against ESBL-positive Klebsiella pneumoniae 16855 harboring porin OmpK36 and OmpK35 genes by Etest in presence of Tazobactam
[3] = tested on: Klebsiella pneumoniae; test: Antimicrobial activity against ESBL-negative Klebsiella pneumoniae 299332 harboring porin OmpK36 gene by Etest in presence of Tazobactam
[4] = tested on: Klebsiella pneumoniae; test: Antimicrobial activity against ESBL-positive Klebsiella pneumoniae 50748 harboring porin OmpK36 gene by Etest in presence of Tazobactam
[5] = tested on: Klebsiella pneumoniae; test: Antimicrobial activity against ESBL-positive Klebsiella pneumoniae 26077 harboring porin OmpK36V mutant gene by Etest in presence of Tazobactam
[6] = tested on: Klebsiella pneumoniae; test: Antimicrobial activity against ESBL-positive Klebsiella pneumoniae 29459 harboring porin OmpK36 gene by Etest in presence of Tazobactam
[7] = tested on: Klebsiella pneumoniae; test: Antimicrobial activity against ESBL-positive Klebsiella pneumoniae 29830 harboring porin OmpK36V mutant gene by Etest in presence of Tazobactam
[8] = tested on: Klebsiella pneumoniae; test: Antimicrobial activity against ESBL-positive Klebsiella pneumoniae 17834 harboring porin OmpK36V mutant gene by Etest in presence of Tazobactam
[9] = tested on: Klebsiella pneumoniae; test: Antimicrobial activity against ESBL-positive Klebsiella pneumoniae 6267 harboring porin OmpK36V mutant gene by Etest in presence of Tazobactam
[10] = tested on: Klebsiella pneumoniae; test: Antimicrobial activity against ESBL-positive Klebsiella pneumoniae 17830 harboring porin OmpK36V mutant gene by Etest in presence of Tazobactam
[11] = tested on: Klebsiella pneumoniae; test: Antimicrobial activity against ESBL-positive Klebsiella pneumoniae 11932 harboring porin OmpK36 gene by Etest in presence of Tazobactam
[12] = tested on: Klebsiella pneumoniae; test: Antimicrobial activity against ESBL-positive Klebsiella pneumoniae 69928 harboring porin OmpK36V mutant gene by Etest in presence of Tazobactam
[13] = tested on: Klebsiella pneumoniae; test: Antimicrobial activity against ESBL-positive Klebsiella pneumoniae 19039 harboring porin OmpK36V mutant gene by Etest in presence of Tazobactam
[14] = tested on: Klebsiella pneumoniae; test: Antimicrobial activity against ESBL-positive Klebsiella pneumoniae 17829 by Etest in presence of Tazobactam
[15] = tested on: Klebsiella pneumoniae; test: Antimicrobial activity against ESBL-negative Klebsiella pneumoniae 30018 harboring porin OmpK35 gene by Etest in presence of Tazobactam
[16] = tested on: Klebsiella pneumoniae; test: Antimicrobial activity against ESBL-positive Klebsiella pneumoniae 287942 harboring porin OmpK36 gene by Etest in presence of Tazobactam
[17] = tested on: Klebsiella pneumoniae; test: Antimicrobial activity against ESBL-positive Klebsiella pneumoniae 18260 by Etest in presence of Tazobactam
[18] = tested on: Klebsiella pneumoniae; test: Antimicrobial activity against ESBL-positive Klebsiella pneumoniae 17049 harboring porin OmpK36V mutant gene by Etest in presence of Tazobactam
[19] = tested on: Klebsiella pneumoniae; test: Antimicrobial activity against ESBL-positive Klebsiella pneumoniae 71697 harboring porin OmpK36V mutant gene by Etest in presence of Tazobactam
[20] = tested on: Klebsiella pneumoniae; test: Antimicrobial activity against ESBL-positive Klebsiella pneumoniae 31750 harboring porin OmpK36 gene by Etest in presence of Tazobactam
[21] = tested on: Klebsiella pneumoniae; test: Antimicrobial activity against ESBL-positive Klebsiella pneumoniae 25008 by Etest in presence of Tazobactam
[22] = tested on: Klebsiella pneumoniae; test: Antimicrobial activity against ESBL-positive Klebsiella pneumoniae 16830 harboring porin OmpK36 gene by Etest in presence of Tazobactam
[23] = tested on: Klebsiella pneumoniae; test: Antimicrobial activity against ESBL-positive Klebsiella pneumoniae 69036 harboring porin OmpK36V mutant gene by Etest in presence of Tazobactam
[24] = tested on: Klebsiella pneumoniae; test: Antimicrobial activity against ESBL-positive Klebsiella pneumoniae 18567 harboring porin OmpK36V mutant gene by Etest in presence of Tazobactam
[25] = tested on: Klebsiella pneumoniae; test: Antimicrobial activity against ESBL-positive Klebsiella pneumoniae 69036 harboring porin OmpK36V mutant gene by Etest
[26] = tested on: Klebsiella pneumoniae; test: Antimicrobial activity against ESBL-positive Klebsiella pneumoniae 50748 harboring porin OmpK36 gene by Etest
[27] = tested on: Klebsiella pneumoniae; test: Antimicrobial activity against ESBL-negative Klebsiella pneumoniae 30018 harboring porin OmpK35 gene by Etest
[28] = tested on: Klebsiella pneumoniae; test: Antimicrobial activity against ESBL-positive Klebsiella pneumoniae 17829 by Etest
[29] = tested on: Klebsiella pneumoniae; test: Antimicrobial activity against ESBL-positive Klebsiella pneumoniae 16830 harboring porin OmpK36 gene by Etest
[30] = tested on: Klebsiella pneumoniae; test: Antimicrobial activity against ESBL-positive Klebsiella pneumoniae 71697 harboring porin OmpK36V mutant gene by Etest
[31] = tested on: Klebsiella pneumoniae; test: Antimicrobial activity against ESBL-positive Klebsiella pneumoniae 26077 harboring porin OmpK36V mutant gene by Etest
[32] = tested on: Klebsiella pneumoniae; test: Antimicrobial activity against ESBL-positive Klebsiella pneumoniae 17049 harboring porin OmpK36V mutant gene by Etest
[33] = tested on: Klebsiella pneumoniae; test: Antimicrobial activity against ESBL-positive Klebsiella pneumoniae 31750 harboring porin OmpK36 gene by Etest
[34] = tested on: Klebsiella pneumoniae; test: Antimicrobial activity against ESBL-positive Klebsiella pneumoniae 17829 harboring pSHA2-encoded porin OmpK36 gene by Etest
[35] = tested on: Klebsiella pneumoniae; test: Antimicrobial activity against ESBL-positive Klebsiella pneumoniae 18567 harboring porin OmpK36V mutant gene by Etest
[36] = tested on: Klebsiella pneumoniae; test: Antimicrobial activity against ESBL-positive Klebsiella pneumoniae 29459 harboring porin OmpK36 gene by Etest
[37] = tested on: Klebsiella pneumoniae; test: Antimicrobial activity against ESBL-positive Klebsiella pneumoniae 18260 by Etest
[38] = tested on: Klebsiella pneumoniae; test: Antimicrobial activity against ESBL-positive Klebsiella pneumoniae 18918 harboring porin OmpK36V mutant gene by Etest
[39] = tested on: Klebsiella pneumoniae; test: Antimicrobial activity against ESBL-positive Klebsiella pneumoniae 287942 harboring porin OmpK36 gene by Etest
[40] = tested on: Klebsiella pneumoniae; test: Antimicrobial activity against ESBL-positive Klebsiella pneumoniae 6267 harboring porin OmpK36V mutant gene by Etest
[41] = tested on: Klebsiella pneumoniae; test: Antimicrobial activity against ESBL-positive Klebsiella pneumoniae 17830 harboring porin OmpK36V mutant gene by Etest
[42] = tested on: Klebsiella pneumoniae; test: Antimicrobial activity against ESBL-positive Klebsiella pneumoniae 29830 harboring porin OmpK36V mutant gene by Etest
[43] = tested on: Klebsiella pneumoniae; test: Antimicrobial activity against ESBL-positive Klebsiella pneumoniae 11932 harboring porin OmpK36 gene by Etest
[44] = tested on: Klebsiella pneumoniae; test: Antimicrobial activity against ESBL-positive Klebsiella pneumoniae 69928 harboring porin OmpK36V mutant gene by Etest
[45] = tested on: Klebsiella pneumoniae; test: Antimicrobial activity against ESBL-positive Klebsiella pneumoniae 17834 harboring porin OmpK36V mutant gene by Etest
[46] = tested on: Klebsiella pneumoniae; test: Antimicrobial activity against ESBL-positive Klebsiella pneumoniae 16855 harboring porin OmpK36 and OmpK35 genes by Etest
[47] = tested on: Klebsiella pneumoniae; test: Antimicrobial activity against ESBL-positive Klebsiella pneumoniae 18260 harboring pSHA2-encoded porin OmpK36 gene by Etest
[48] = tested on: Klebsiella pneumoniae; test: Antimicrobial activity against ESBL-positive Klebsiella pneumoniae 19039 harboring porin OmpK36V mutant gene by Etest
[49] = tested on: Klebsiella pneumoniae; test: Antimicrobial activity against ESBL-positive Klebsiella pneumoniae 25008 by Etest
[50] = tested on: Klebsiella pneumoniae; test: Antimicrobial activity against ESBL-negative Klebsiella pneumoniae 299332 harboring porin OmpK36 gene by Etest

Measured: MIC

CCN1CCN(C(=O)N[C@@H](C(=O)N[C@@H]2C(=O)N3[C@@H]2SC(C)(C)[C@@H]3C(=O)O)c2ccccc2)C(=O)C1=O [PIPERACILLIN]
32 µg/mL: [2]
6 µg/mL: [3]
8 µg/mL: [20]
> 256 µg/mL: [1] | [5] | [6] | [7] | [8] | [10] | [11] | [12] | [13] | [14] | [16] | [17] | [18] | [19] | [21] | [23] | [24]
3 µg/mL: [15]
12 µg/mL: [4] | [9]
16 µg/mL: [22]

C[C@@H](O)[C@H]1C(=O)N2C(C(=O)O)=C(SCCNC=N)C[C@H]12 [IMIPENEM ANHYDROUS]
0.19 µg/mL: [25] | [30] | [31] | [33] | [35] | [36] | [38] | [39] | [41] | [42] | [43] | [45] | [48]
0.25 µg/mL: [26] | [27] | [32] | [46] | [50]
12 µg/mL: [28] | [37]
0.5 µg/mL: [40] | [44]
0.125 µg/mL: [29]
1 µg/mL: [34] | [47] | [49]

C[C@H]1[C@H](NC(=O)/C(=N\OC(C)(C)C(=O)O)c2csc(N)n2)C(=O)N1S(=O)(=O)O [AZTREONAM]
> 256 µg/mL: [25] | [26] | [28] | [29] | [30] | [31] | [32] | [34] | [35] | [36] | [37] | [38] | [39] | [41] | [42] | [43] | [44] | [45] | [47] | [48] | [49]
0.25 µg/mL: [50]
0.064 µg/mL: [27]

CO/N=C(\C(=O)N[C@@H]1C(=O)N2C(C(=O)O)=C(COC(C)=O)CS[C@H]12)c1csc(N)n1 [CEFOTAXIME]
> 32 µg/mL: [25] | [26] | [28] | [29] | [30] | [31] | [32] | [33] | [35] | [36] | [37] | [38] | [39] | [40] | [41] | [42] | [43] | [44] | [45] | [46] | [48] | [49]
0.125 µg/mL: [50]
0.094 µg/mL: [27]
